The source of these data is PubChem BioAssay AID1259407 (Chemical Carcinogenesis Research Information System (CCRIS), 2018).

The data set concerns CCRIS mutagenicity, Ames/micronucleus/aberration tests. The data set can be described thus: CCRIS mutagenicity studies.
Where [1] appears, read: Test System: AMES SALMONELLA TYPHIMURIUM, Strain/Indicator: TA98, Metabolic Activation: NONE, Method: PREINCUBATION
The mark [2] stands for this setting: Test System: AMES SALMONELLA TYPHIMURIUM, Strain/Indicator: TA98, Metabolic Activation: RAT LIVER S-9, PHENOBARBITAL AND BETA-NAPHTHOFLAVONE, Method: PREINCUBATION
The mark [3] stands for this setting: Test System: AMES SALMONELLA TYPHIMURIUM, Strain/Indicator: TA100, Metabolic Activation: NONE, Method: PREINCUBATION
The mark [4] stands for this setting: Test System: AMES SALMONELLA TYPHIMURIUM, Strain/Indicator: TA100, Metabolic Activation: RAT LIVER S-9, PHENOBARBITAL AND BETA-NAPHTHOFLAVONE, Method: PREINCUBATION
[5] abbreviates: Test System: AMES SALMONELLA TYPHIMURIUM, Strain/Indicator: TA1535, Metabolic Activation: NONE, Method: PREINCUBATION
[6] abbreviates: Test System: AMES SALMONELLA TYPHIMURIUM, Strain/Indicator: TA1535, Metabolic Activation: RAT LIVER S-9, PHENOBARBITAL AND BETA-NAPHTHOFLAVONE, Method: PREINCUBATION
[7] abbreviates: Test System: AMES SALMONELLA TYPHIMURIUM, Strain/Indicator: TA1537, Metabolic Activation: NONE, Method: PREINCUBATION
Setting [8] is: Test System: AMES SALMONELLA TYPHIMURIUM, Strain/Indicator: TA1537, Metabolic Activation: RAT LIVER S-9, PHENOBARBITAL AND BETA-NAPHTHOFLAVONE, Method: PREINCUBATION
[9] abbreviates: Test System: AMES SALMONELLA TYPHIMURIUM, Strain/Indicator: TA100, Metabolic Activation: NONE, Method: STANDARD PLATE.

Active and inactive are the calls of the source. The rule behind the calls is not given here.

With `N=C(N)S(=O)O`, the mutagenic call is, setting by setting: under setting [1], “inactive; negative”; under setting [2], “inactive; negative”; under setting [3], “inactive; negative”; under setting [4], “inactive; negative”; under setting [5], “active; positive”; under setting [6], “active; positive”. Also, the mutagenic call is “inactive; negative” under setting [7]; “inactive; negative” under setting [8]; “inactive; negative” (Test System: E.COLI, Strain/Indicator: WP2UVRA\PKM101, Metabolic Activation: NONE, Method: PREINCUBATION); “inactive; negative” (Test System: E.COLI, Strain/Indicator: WP2UVRA\PKM101, Metabolic Activation: RAT LIVER S-9, PHENOBARBITAL AND BETA-NAPHTHOFLAVONE, Method: PREINCUBATION).

Take `O=[N+]([O-])O.O=[N+]([O-])O.[O]=[U]=[O]`: the mutagenic call (End Point: In vitro micronucleus, Test System: Rat kidney (NRK-52E) cells, Metabolic Activation: None) is “inactive; negative; depleted uranium tested”.

On to `CC(=O)OCN(N=O)c1ccccc1`, for which, for the setting “Test System: AMES SALMONELLA TYPHIMURIUM, Strain/Indicator: TA1537, Metabolic Activation: NONE, Method: LIQUID INCUBATION”, the mutagenic call is “active; positive”.

Turning to `O=C(/C=C/c1ccc(F)cc1)c1ccccc1`, the mutagenic call runs as follows: (Test System: AMES SALMONELLA TYPHIMURIUM, Strain/Indicator: TA98, Metabolic Activation: NONE, Method: STANDARD PLATE) “inactive; negative”; (Test System: AMES SALMONELLA TYPHIMURIUM, Strain/Indicator: TA98, Metabolic Activation: RAT, LIVER, S-9, AROCLOR 1254, Method: STANDARD PLATE) “inactive; negative”; under setting [9], “inactive; negative”; (Test System: AMES SALMONELLA TYPHIMURIUM, Strain/Indicator: TA100, Metabolic Activation: RAT, LIVER, S-9, AROCLOR 1254, Method: STANDARD PLATE) “inactive; negative”.

For the compound `Nc1cccc([N+](=O)[O-])c1N`, the mutagenic call was “active; positive” (Test System: AMES SALMONELLA TYPHIMURIUM, Strain/Indicator: TA98(NR), Metabolic Activation: NONE, Method: PREINCUBATION); “active; positive” (Test System: AMES SALMONELLA TYPHIMURIUM, Strain/Indicator: TA98(NR), Metabolic Activation: RAT, LIVER, S-9, AROCLOR 1254, Method: PREINCUBATION); “active; positive” under setting [1]; “active; positive” (Test System: AMES SALMONELLA TYPHIMURIUM, Strain/Indicator: TA100(NR), Metabolic Activation: NONE, Method: PREINCUBATION); “active; positive” (Test System: AMES SALMONELLA TYPHIMURIUM, Strain/Indicator: TA100(NR), Metabolic Activation: RAT, LIVER, S-9, AROCLOR 1254, Method: PREINCUBATION); “active; positive” under setting [3]. Also, the mutagenic call is “active; positive” under setting [9]; “active; positive” (Test System: AMES SALMONELLA TYPHIMURIUM, Strain/Indicator: TA104, Metabolic Activation: NONE, Method: STANDARD PLATE); “inactive; negative” (Test System: AMES SALMONELLA TYPHIMURIUM, Strain/Indicator: TA4001, Metabolic Activation: NONE, Method: STANDARD PLATE); “active; positive” (Test System: AMES SALMONELLA TYPHIMURIUM, Strain/Indicator: TA4006, Metabolic Activation: NONE, Method: STANDARD PLATE); “active; positive” (Test System: AMES SALMONELLA TYPHIMURIUM, Strain/Indicator: TA7001, Metabolic Activation: NONE, Method: STANDARD PLATE); “inactive; negative” (Test System: AMES SALMONELLA TYPHIMURIUM, Strain/Indicator: TA7001, Metabolic Activation: RAT LIVER S-9, AROCLOR 1254, Method: STANDARD PLATE). Besides, the mutagenic call is “active; positive” (Test System: AMES SALMONELLA TYPHIMURIUM, Strain/Indicator: TA7002, Metabolic Activation: NONE, Method: STANDARD PLATE); “active; positive” (Test System: AMES SALMONELLA TYPHIMURIUM, Strain/Indicator: TA7003, Metabolic Activation: NONE, Method: STANDARD PLATE); “inactive; negative” (Test System: AMES SALMONELLA TYPHIMURIUM, Strain/Indicator: TA7003, Metabolic Activation: RAT LIVER S-9, AROCLOR 1254, Method: STANDARD PLATE); “active; positive” (Test System: AMES SALMONELLA TYPHIMURIUM, Strain/Indicator: TA7004, Metabolic Activation: NONE, Method: STANDARD PLATE); “inactive; negative” (Test System: AMES SALMONELLA TYPHIMURIUM, Strain/Indicator: TA7004, Metabolic Activation: RAT LIVER S-9, AROCLOR 1254, Method: STANDARD PLATE); “active; positive” (Test System: AMES SALMONELLA TYPHIMURIUM, Strain/Indicator: TA7005, Metabolic Activation: NONE, Method: STANDARD PLATE). Moreover, the mutagenic call is “inactive; negative” (Test System: AMES SALMONELLA TYPHIMURIUM, Strain/Indicator: TA7006, Metabolic Activation: NONE, Method: STANDARD PLATE) and “active; positive” (Test System: CHINESE HAMSTER OVARY, Strain/Indicator: CHO-K1-BH4 (HGPRT), Metabolic Activation: NONE, Method: SUSPENSION/PLATE).

For the compound `CC(C)(C)ON=O`, the mutagenic call runs as follows: under setting [3], “active; positive”; (Test System: AMES SALMONELLA TYPHIMURIUM, Strain/Indicator: TA100, Metabolic Activation: RAT, LIVER, S-9, AROCLOR, Method: PREINCUBATION) “inactive; negative”; (Test System: AMES SALMONELLA TYPHIMURIUM, Strain/Indicator: TA102, Metabolic Activation: NONE, Method: PREINCUBATION) “inactive; negative”.

Consider `CC(CO)(CO)CO`, for which the mutagenic call by setting is: under setting [1], “inactive; negative”; under setting [2], “inactive; negative”; under setting [3], “inactive; negative”; under setting [4], “inactive; negative”; under setting [5], “inactive; negative”; under setting [6], “inactive; negative”. Moreover, the mutagenic call is, setting by setting: under setting [7], “inactive; negative”; under setting [8], “inactive; negative”; (Test System: E.COLI, Strain/Indicator: WP2UVRA/PKM101, Metabolic Activation: NONE, Method: PREINCUBATION) “inactive; negative”; (Test System: E.COLI, Strain/Indicator: WP2UVRA/PKM101, Metabolic Activation: RAT LIVER S-9, PHENOBARBITAL AND BETA-NAPHTHOFLAVONE, Method: PREINCUBATION) “inactive; negative”.

In the case of `CCCN(CC(C)=O)N=O`, the mutagenic call (Test System: CHINESE HAMSTER V-79, Strain/Indicator: V-79/OUABAIN, Metabolic Activation: HAMSTER, HEPATOCYTES, Method: CELL-MEDIATED) is “active; positive”.

As for `C[C@@H](Br)C(=O)NCc1ccccc1`, the mutagenic call under setting [9] was “active; positive”.

For `CCOC(=O)CC(=O)OCC`, the mutagenic call by setting is: (Test System: Ames Salmonella typhimurium, Strain/Indicator: TA98, Metabolic Activation: None, Method: Preincubation) “inactive; negative”; (Test System: Ames Salmonella typhimurium, Strain/Indicator: TA98, Metabolic Activation: Rat, Liver, S-9, Phenobarbital and 5,6-benzoflavone, Method: Preincubation) “inactive; negative”; (Test System: Ames Salmonella typhimurium, Strain/Indicator: TA100, Metabolic Activation: None, Method: Preincubation) “inactive; negative”; (Test System: Ames Salmonella typhimurium, Strain/Indicator: TA100, Metabolic Activation: Rat, Liver, S-9, Phenobarbital and 5,6-benzoflavone, Method: Preincubation) “inactive; negative”; (Test System: Ames Salmonella typhimurium, Strain/Indicator: TA1535, Metabolic Activation: None, Method: Preincubation) “inactive; negative”; (Test System: Ames Salmonella typhimurium, Strain/Indicator: TA1535, Metabolic Activation: Rat, Liver, S-9, Phenobarbital and 5,6-benzoflavone, Method: Preincubation) “inactive; negative”. In addition, the mutagenic call (Test System: Ames Salmonella typhimurium, Strain/Indicator: TA1537, Metabolic Activation: None, Method: Preincubation) was “inactive; negative”; the mutagenic call (Test System: Ames Salmonella typhimurium, Strain/Indicator: TA1537, Metabolic Activation: Rat, Liver, S-9, Phenobarbital and 5,6-benzoflavone, Method: Preincubation) was “inactive; negative”; the mutagenic call (Test System: E. coli, Strain/Indicator: WP2uvrA/pKM101, Metabolic Activation: None, Method: Preincubation) is “inactive; negative”; the mutagenic call (Test System: E. coli, Strain/Indicator: WP2uvrA/pKM101, Metabolic Activation: Rat, Liver, S-9, Phenobarbital and 5,6-benzoflavone, Method: Preincubation) is “inactive; negative”.
